Experimental data published in publication PMC2063203, “The renal effects of the water-soluble, non-folylpolyglutamate synthetase-dependent thymidylate synthase inhibitor ZD9331 in mice” (British Journal of Cancer, 1998).
Values after ≈ are worked out from the molar mass of the structure shown. Values joined by “and” are separate entries in the source; they are usually repeats but may differ in a detail not shown here. Equal entries are not always repeated. Where two headings read alike, the source gives them in different places.

Tests used:
Aqueous solubility = format: physicochemical
[1] = Peak plasma concentration in phase I, 30 min infusion; format: in vivo; settings: after 30 min infusion
[2] = Kidney drug distribution and kidney-plasma ratios (HPLC); format: in vivo, mice; settings: for Cmax / Tmax / AUC(0-t): mouse, DBA-2 mice; for AUC(0-t): read-out: AUC0-8h
Experimental: (§1) British Journal of Cancer (1998) 78(11), 1457-1463 ? […] In contrast to Tomudex (ZD1694), ZD9331 may therefore be active against tumours with low FPGS activity. […] In view of the history of renal toxicity with some earlier TS inhibitors and the possible therapeutic use of bolus ZD9331, we have examined the effects of bolus ZD9331 dose and route of administration on plasma and kidney pharmacokinetics and renal function in mice. Renal function was assessed by measuring [14C]inulin clearance, and drug concentrations were assayed by reverse-phase high-performance liquid chromatography (HPLC). […] Kidney drug concentrations were slightly elevated in iv.- versus i.p.-treated animals at the low dose (50 mg kg-'), with a correspondingly larger area under the curve. However, at the highest dose (200 mg kg-'), peak kidney drug concentrations were 20-fold higher following i.v. administration than after i.p., with marked kidney retention, resulting in a 50-fold greater kidney drug exposure for the i.v. versus the i.p. route. […] These adverse effects can be readily overcome by i.p. administration, indicating the likely need for short infusions in clinical settings. […] Early studies established that nephrotoxicity may be a result of poor aqueous solubility of 2-amino compounds such as CB3717, and it was shown that 2-desamino CB3717 was more water soluble and less nephrotoxic (Jones et al, 1989; 1996). […] These polyglutamate forms also exibit intra- cellular retention, which may contribute to toxicity as well as anti- tumour activity. […] Such compounds might be expected to show activity in a different spectrum of tumours from ZD1694 and to have a more manageable toxicity profile because of the lack of retained cyto- toxic metabolites. […] MATERIALS AND METHODS Drug administration and animals The compound ZD933 1 (Figure 1) was provided as a white crystalline salt. ['4C]inulin was provided as a carboxylic acid (Amersham, UK, 250 µCi in 5 ml, specific activity 6.6 mCi mmol-') and diluted to an activity of 5 µCi ml-' in phosphate-buffered saline (PBS). ZD9331 was dissolved in 0.05 M sodium bicarbonate, 1457 1458 Ml Walton et al ~~ N Ny~~~14COOHH 0 H IN H N CH ~~~~H , 4 H3C N3 H Figure 1 The chemical structure of ZD9331 adjusted to pH 9.0 and administered either i.v. via the tail vein or i.p. at 0.01 ml g-' mouse body weight. [14C]inulin was administered at 0.05 gCi g-' (i.e. 0.01 ml g-') i.v. via the tail vein. Adult female DBA-2 mice were obtained from OLAC (Bicester, UK) and used at 8-12 weeks of age at a body weight of 15-25 g. Mice were housed in cages containing untreated sawdust and allowed access to food and water ad libitum. Sample preparation Plasma and tissue samples were prepared using standard tech- niques (Walton et al, 1996). Briefly, whole blood was obtained by cardiac puncture into heparinized syringes from halothane- anaesthetized mice. Plasma was prepared by centrifugation at 12 000 r.p.m. x 2 min in a bench-top microcentrifuge. Kidney and liver tissues were rapidly removed, washed and snap frozen on dry ice. Frozen plasma and tissues were stored at -20?C for up to 4 weeks prior to analysis. Individual samples were thawed on ice and handled rapidly. ZD9331 was extracted from whole plasma or tissue homogenates (33% w/v in 0.1 M Tris, pH 10.0) by the addition of an equal volume of acetonitrile, mixing and centrifugation and the super- natant removed for injection into the HPLC system. Samples were diluted with Tris buffer (0.1 M, pH 10.0) on to the linear part of the calibration curve prior to HPLC analysis. Extraction efficiencies were >95%. HPLC analysis Concentrations of ZD9331 were measured in biological samples using reversed phase HPLC on equipment supplied by Kontron (Watford, UK). Separations were carried out using stainless-steel columns heated at 45?C and packed with C18 Supelcosil ODS (10 cm x 4.6 mm, 5 µm bead size, Sigma, Dorset) and protected with NewGuard C18 columns (Anachem, Luton, UK). […]

[3] = Plasma pharmacokinetics of ZD9331 (HPLC, non-compartmental); format: in vivo, mice; settings: for AUC(0-t): read-out: AUC0-8h; for concentration at 4 h: read-out: plasma drug concentration at 4 h; for Cmax / Tmax: mouse
Experimental: as §1

DBA-2 mice = experiment: Kidney histology (H & E) and immunohistochemical staining for ZD9331; format: in vivo
[4] = female, ip, kidney, 50 mg kg-1 i.p.
[5] = female, ip, kidney, 200 mg kg-1 i.p.
[6] = female, iv, kidney, 50 mg kg-1 i.v.
[7] = female, iv, kidney, 200 mg kg-1 i.v.
[8] = female, ip, plasma, DBA-2 mice, 50 mg kg-1 i.p.
[9] = female, ip, plasma, DBA-2 mice, 200 mg kg-1 i.p.
[10] = female, iv, plasma, DBA-2 mice, 50 mg kg-1 i.v. bolus
[11] = female, iv, plasma, DBA-2 mice, 100 mg kg-1 i.v. bolus
[12] = female, iv, plasma, DBA-2 mice, 200 mg kg-1 i.v. bolus

With C#CCN(Cc1cc2c(=O)[nH]c(C)nc2cc1C)c1ccc(C(=O)N[C@@H](CCc2nnn[nH]2)C(=O)O)c(F)c1 [ZD9331, (2S)-2-{O-fluoro-p-(N-(2,7-dimethyl-4-oxo-3,4-dihydroquinazolin-6-ylmethyl)-N-(prop-2-ynyl)amino}benzamido}-4-(tetrazol-5-yl)butyric acid] the solubility (Aqueous solubility; pH 5.3, aqueous buffer) was 0.1 mM (≈ 53.3 µg/mL), the solubility (Aqueous solubility; pH 7.4, aqueous buffer) was 8 mM (≈ 4260 µg/mL) and the “peak plasma drug concentration in man as % of that after 200 mg kg-1 i.v. in mouse” value [1] was < 1%. For the same compound, the “peak kidney drug level i.p., % lower than i.v.” value ([2]; 50 mg kg-1) was 80%, the “kidney AUC0-8h i.p. as % of i.v. route” value ([2]; 200 mg kg-1) was 1.8% and the “kidney drug exposure i.v. versus i.p.” value ([2]; 200 mg kg-1) was 50 fold. The “peak kidney drug concentration i.v. versus i.p.” value ([2]; 200 mg kg-1) was 20 fold, the “peak kidney drug level i.p. as % of i.v. value” ([2]; 200 mg kg-1) was 5% and the “kidney-plasma ratio at 8 h” value ([2]; 200 mg kg-1 i.p.) was 2 000%. The “kidney-plasma ratio relative to the lower dose of 50 mg kg-1” value ([2]; 200 mg kg-1 i.p.) was 2-3 times, the “kidney-plasma ratio, initial” value ([2]; 200 mg kg-1 i.p.) was 20% and the “kidney AUC0-8h” value ([2]; 200 mg kg-1 i.v.) was 9.66 mM·h. For the same compound, the “kidney-plasma ratio after 8 h” value ([2]; 200 mg kg-1 i.v.) was 100 000%, the “kidney-plasma ratio, initial (measured at 5 min)” value ([2]; 200 mg kg-1 i.v.) was > 100% and the “peak kidney drug level” value ([2]; 200 mg kg-1 i.v.) was 3.62 mM. For the same compound, the “peak kidney drug level versus lower dose” value ([2]; 200 mg kg-1 i.v. compared with 50 mg kg-1 i.v.) was ~12 fold, the Kp at 4 h ([2]; female, DBA-2, mouse, kidney, ip, 50 mg kg-1, 50 mg kg-1 i.p., Discussion, read-out: kidney-plasma ratio, steady-state equilibrium at 4 h) was 2 to 4 and the Kp at 1 h ([2]; female, DBA-2, mouse, kidney, ip, 50 mg kg-1, 50 mg kg-1 i.p., read-out: kidney-plasma ratio after 1 h) was 1. For the same compound, the Kp ([2]; female, DBA-2, mouse, kidney, ip, 50 mg kg-1, 50 mg kg-1 i.p., read-out: kidney-plasma ratio, steady-state) was 1 to 3, the Kp at 30 min ([2]; female, DBA-2, mouse, kidney, iv, 50 mg kg-1, 50 mg kg-1 i.v., read-out: kidney-plasma ratio at 30 min) was 10 and the Kp at 2 h ([2]; female, DBA-2, mouse, kidney, iv, 50 mg kg-1, 50 mg kg-1 i.v., read-out: kidney-plasma ratio, equilibrium at 2 h) was 2 to 3. The Kp ([2]; female, DBA-2, mouse, kidney, iv, 50 mg kg-1, 50 mg kg-1 i.v., read-out: kidney-plasma ratio, initial) was 0.35, the Kp ([2]; female, DBA-2, mouse, kidney, iv, 200 mg kg-1, 200 mg kg-1 i.v., read-out: kidney concentration relative to plasma, plateau) was 400 to 600 and the Kp at 5 min ([2]; female, DBA-2, mouse, kidney, iv, 200 mg kg-1, 200 mg kg-1 i.v., read-out: kidney-plasma ratio, initial (measured at 5 min)) was 1. For the same compound, the Kp ([2]; female, DBA-2, mouse, kidney/plasma, ip, 200 mg kg-1, 200 mg kg-1 i.p., read-out: kidney-plasma ratio, increased steadily to) was 10 to 20, the Kp ([2]; female, DBA-2, mouse, kidney/plasma, ip, 200 mg kg-1, 200 mg kg-1 i.p., read-out: kidney-plasma ratio, initial) was 0.23 and the Cmax [2, 4] was 31500 ng/g and 59.1 µM. The Tmax [2, 4] was 10 min, the AUC(0-t) [2, 4] was 47.5 µM·h and the Cmax [2, 5] was 96400 ng/g and 181 µM. The Tmax [2, 5] was 30 min, the AUC(0-t) [2, 5] was 179 µM·h and the Cmax [2, 6] was 163000 ng/g and 305 µM. The Tmax [2, 6] was 10 min, the AUC(0-t) [2, 6] was 240 µM·h and the Cmax [2, 7] was 1.9e+06 ng/g and 3.62 mM. The Tmax [2, 7] was 30 min, the AUC(0-t) [2, 7] was 9660 µM·h and the “peak plasma concentration i.p. as % of i.v.” value ([3]; 50 mg kg-1) was 11%. For the same compound, the “peak plasma concentration i.p. as % of i.v.” value ([3]; 200 mg kg-1) was 25%, the AUC(0-t) ([3]; female, DBA-2, mouse, plasma, ip, 50 mg/kg, plasma, DBA-2 mice, 50 mg kg-1 i.p.) was 90.1 µM·h and the half-life ([3]; female, DBA-2, mouse, plasma, ip, 50 mg/kg, plasma, DBA-2 mice, 50 mg kg-1 i.p., read-out: t1/2) was 93.4 min. It also gave an AUC(0-t) ([3]; female, DBA-2, mouse, plasma, ip, 200 mg/kg, plasma, DBA-2 mice, 200 mg kg-1 i.p.) of 315 µM·h, a half-life ([3]; female, DBA-2, mouse, plasma, ip, 200 mg/kg, plasma, DBA-2 mice, 200 mg kg-1 i.p., read-out: t1/2) of 99 min and a bioavailability ([3]; female, DBA-2, mouse, plasma, ip, 50 mg kg-1, read-out: i.p. bioavailability) of 80%. It also gave a concentration at 4 h ([3]; female, DBA-2, mouse, plasma, ip, 50 mg kg-1 i.p.) of 1000 nM, a concentration at 4 h ([3]; female, DBA-2, mouse, plasma, ip, 200 mg kg-1 i.p.) of 1860 nM and an AUC(0-t) ([3]; female, DBA-2, mouse, plasma, iv, 50 mg/kg, plasma, DBA-2 mice, 50 mg kg-1 i.v. bolus) of 75.3 µM·h. The half-life ([3]; female, DBA-2, mouse, plasma, iv, 50 mg/kg, plasma, DBA-2 mice, 50 mg kg-1 i.v. bolus, read-out: t1/2 (apparent terminal elimination)) was 57 min, the AUC(0-t) ([3]; female, DBA-2, mouse, plasma, iv, 100 mg/kg, plasma, DBA-2 mice, 100 mg kg-1 i.v. bolus) was 109 µM·h and the half-life ([3]; female, DBA-2, mouse, plasma, iv, 100 mg/kg, plasma, DBA-2 mice, 100 mg kg-1 i.v. bolus, read-out: t1/2) was 91.7 min. For the same compound, the AUC(0-t) ([3]; female, DBA-2, mouse, plasma, iv, 200 mg/kg, plasma, DBA-2 mice, 200 mg kg-1 i.v. bolus) was 332 µM·h, the half-life ([3]; female, DBA-2, mouse, plasma, iv, 200 mg/kg, plasma, DBA-2 mice, 200 mg kg-1 i.v. bolus, read-out: t1/2) was 64.5 min and the concentration at 4 h ([3]; female, DBA-2, mouse, plasma, iv, 50 mg kg-1 i.v.) was 1100 nM. It also gave a concentration at 2 min ([3]; female, DBA-2, mouse, plasma, iv, 100 mg kg-1 i.v., read-out: plasma drug concentration at 2 min) of 898 µM, a concentration at 5 min ([3]; female, DBA-2, mouse, plasma, iv, 100 mg kg-1 i.v., read-out: plasma drug concentration at 5 min) of 771 µM and a concentration at 4 h ([3]; female, DBA-2, mouse, plasma, iv, 200 mg kg-1 i.v.) of 1300 nM. For the same compound, the Cmax [3, 8] was 74100 ng/mL and 139 µM, the Tmax [3, 8] was 10 min and the Cmax [3, 9] was 483000 ng/mL and 906 µM. For the same compound, the Tmax [3, 9] was 10 min, the Cmax [3, 10] was 696000 ng/mL and 1.31 mM and the Tmax [3, 10] was 1 min. For the same compound, the Cmax [3, 11] was 708000 ng/mL and 1.32 mM, the Tmax [3, 11] was 1 min and the Cmax [3, 12] was 1.9e+06 ng/mL and 3.63 mM. For the same compound, the Tmax [3, 12] was 1 min, the “relation of plasma drug exposure (AUC) to dose” value ([3]; i.p., range 0-200 mg kg-1) was “linearly related to dose” and the “relation of plasma drug exposure (AUC) to dose” value ([3]; i.v., up to 200 mg kg-1) was “marked deviation from linearity at the highest dose”. The peak plasma concentration ([3]; plasma, 50 mg kg-1 i.v.) was 1.3 mM, the “i.p. AUC0-8h as % of i.v.” value ([3]; plasma, 200 mg kg-1) was 63% and the “t1/2 (apparent terminal elimination)” value ([3]; plasma, DBA-2 mice, 50 mg kg-1 i.v. bolus) was 57.7 min. For the same compound, the renal histology (DBA-2 mice; 200 mg kg-1 i.v., 4 h after) was “evidence of tubular dilatation (Figure SB), with the presence of fine granular casts in the tubules”, the “drug distribution in kidney tissue (histology with immunohistochemical staining)” value (DBA-2 mice; 200 mg kg-1 i.v., data not shown) was “uniform drug distribution in tissue with no evidence of drug precipitation” and the renal histology (DBA-2 mice; lower drug doses) was “some tubular dilatation”.
